Source: ChEMBL document CHEMBL4219122, “Synthesis and biological evaluation of histone deacetylase and DNA topoisomerase II-Targeted inhibitors” (Bioorg Med Chem, 2018)
Calls of active or inactive are those of the source. The calls are words filed in the database; no cut-off is given here.

How the values were obtained:
[1] = test system: MKN-1; experiment: Growth inhibition of human MKN1 cells after 48 hrs by sulforhodamine B-based colorimetric assay; format: functional; details: MKN-1, 48 h
[2] = test system: MDA-MB-231; experiment: Growth inhibition of human MDA-MB-231 cells after 48 hrs by sulforhodamine B-based colorimetric assay; format: functional; details: MDA-MB-231, 48 h
[3] = test system: HT-29; experiment: Growth inhibition of human HT-29 cells after 48 hrs by sulforhodamine B-based colorimetric assay; format: functional; details: HT-29, 48 h
[4] = test system: A549; experiment: Growth inhibition of human A549 cells after 48 hrs by sulforhodamine B-based colorimetric assay; format: functional; details: A549, 48 h
[5] = molecular target: DNA topoisomerase 2-alpha (Homo sapiens, UniProt P11388); experiment: Inhibition of human topoisomerase-2 alpha-mediated kinetoplast DNA decatenation at 200 uM after 30 mins by ethidium bromide staining based agarose gel electrophoresis
Chain of DNA topoisomerase 2-alpha (P11388 whole entry): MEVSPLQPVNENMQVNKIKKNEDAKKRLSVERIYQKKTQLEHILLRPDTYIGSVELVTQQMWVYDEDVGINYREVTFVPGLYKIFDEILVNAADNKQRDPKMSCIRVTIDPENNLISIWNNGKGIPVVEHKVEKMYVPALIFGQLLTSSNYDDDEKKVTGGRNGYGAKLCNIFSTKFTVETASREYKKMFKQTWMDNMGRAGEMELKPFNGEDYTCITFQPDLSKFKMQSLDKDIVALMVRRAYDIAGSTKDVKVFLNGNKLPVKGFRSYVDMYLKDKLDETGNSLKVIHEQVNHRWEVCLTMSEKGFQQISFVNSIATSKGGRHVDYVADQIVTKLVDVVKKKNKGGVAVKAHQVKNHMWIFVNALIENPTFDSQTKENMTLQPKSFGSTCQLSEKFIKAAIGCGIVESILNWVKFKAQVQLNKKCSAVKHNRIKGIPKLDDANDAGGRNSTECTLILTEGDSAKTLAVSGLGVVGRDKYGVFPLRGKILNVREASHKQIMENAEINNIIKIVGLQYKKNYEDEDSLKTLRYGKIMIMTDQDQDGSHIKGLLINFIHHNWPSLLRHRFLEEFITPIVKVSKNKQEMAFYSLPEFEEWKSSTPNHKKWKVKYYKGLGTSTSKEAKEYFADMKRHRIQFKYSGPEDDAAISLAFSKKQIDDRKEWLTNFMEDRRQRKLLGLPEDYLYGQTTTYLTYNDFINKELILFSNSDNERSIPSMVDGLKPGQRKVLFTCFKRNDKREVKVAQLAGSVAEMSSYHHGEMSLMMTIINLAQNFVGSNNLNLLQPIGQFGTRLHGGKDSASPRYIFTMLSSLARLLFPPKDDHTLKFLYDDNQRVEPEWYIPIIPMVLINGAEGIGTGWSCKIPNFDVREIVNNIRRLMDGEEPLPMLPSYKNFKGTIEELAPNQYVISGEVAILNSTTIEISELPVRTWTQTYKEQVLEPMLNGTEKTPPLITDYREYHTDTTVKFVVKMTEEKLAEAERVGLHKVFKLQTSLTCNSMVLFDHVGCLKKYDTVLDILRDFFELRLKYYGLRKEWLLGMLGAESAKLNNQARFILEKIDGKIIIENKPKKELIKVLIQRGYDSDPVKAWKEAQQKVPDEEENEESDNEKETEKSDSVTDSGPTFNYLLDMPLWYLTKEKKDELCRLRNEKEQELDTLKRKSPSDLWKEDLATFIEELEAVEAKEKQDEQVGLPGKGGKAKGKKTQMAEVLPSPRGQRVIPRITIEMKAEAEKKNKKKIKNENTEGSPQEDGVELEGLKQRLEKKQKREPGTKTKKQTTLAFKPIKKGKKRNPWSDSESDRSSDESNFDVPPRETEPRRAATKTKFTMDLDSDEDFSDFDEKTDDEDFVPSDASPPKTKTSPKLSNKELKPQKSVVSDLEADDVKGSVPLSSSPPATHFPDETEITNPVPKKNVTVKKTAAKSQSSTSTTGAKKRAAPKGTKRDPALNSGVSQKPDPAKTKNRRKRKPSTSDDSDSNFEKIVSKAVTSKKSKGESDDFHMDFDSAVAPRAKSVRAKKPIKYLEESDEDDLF

[6] = test system: OVCAR-8; experiment: Growth inhibition of human OVCAR8 cells after 48 hrs by sulforhodamine B-based colorimetric assay; format: functional; details: OVCAR-8, 48 h
[7] = test system: DU-145; experiment: Growth inhibition of human DU145 cells after 48 hrs by sulforhodamine B-based colorimetric assay; format: functional, cell-based; details: DU-145, 48 h
[8] = test system: PC-3; experiment: Growth inhibition of human PC3 cells after 48 hrs by sulforhodamine B-based colorimetric assay; format: functional; details: PC-3, 48 h
[9] = test system: HCC 2998; experiment: Growth inhibition of human HCC2998 cells after 48 hrs by sulforhodamine B-based colorimetric assay; format: functional; details: HCC 2998, 48 h
[10] = molecular target: T1, Protein deacetylase HDAC6 (Mus musculus, UniProt Q9Z2V5); experiment: Inhibition of recombinant mouse HDAC6 expressed in HEK293T cells co-expressing mouse HDA2 using Ac-KGLGK(Ac)-MCA as substrate after 30 mins in presence of DTT by fluorescence assay
T1 sequence (Q9Z2V5 whole entry): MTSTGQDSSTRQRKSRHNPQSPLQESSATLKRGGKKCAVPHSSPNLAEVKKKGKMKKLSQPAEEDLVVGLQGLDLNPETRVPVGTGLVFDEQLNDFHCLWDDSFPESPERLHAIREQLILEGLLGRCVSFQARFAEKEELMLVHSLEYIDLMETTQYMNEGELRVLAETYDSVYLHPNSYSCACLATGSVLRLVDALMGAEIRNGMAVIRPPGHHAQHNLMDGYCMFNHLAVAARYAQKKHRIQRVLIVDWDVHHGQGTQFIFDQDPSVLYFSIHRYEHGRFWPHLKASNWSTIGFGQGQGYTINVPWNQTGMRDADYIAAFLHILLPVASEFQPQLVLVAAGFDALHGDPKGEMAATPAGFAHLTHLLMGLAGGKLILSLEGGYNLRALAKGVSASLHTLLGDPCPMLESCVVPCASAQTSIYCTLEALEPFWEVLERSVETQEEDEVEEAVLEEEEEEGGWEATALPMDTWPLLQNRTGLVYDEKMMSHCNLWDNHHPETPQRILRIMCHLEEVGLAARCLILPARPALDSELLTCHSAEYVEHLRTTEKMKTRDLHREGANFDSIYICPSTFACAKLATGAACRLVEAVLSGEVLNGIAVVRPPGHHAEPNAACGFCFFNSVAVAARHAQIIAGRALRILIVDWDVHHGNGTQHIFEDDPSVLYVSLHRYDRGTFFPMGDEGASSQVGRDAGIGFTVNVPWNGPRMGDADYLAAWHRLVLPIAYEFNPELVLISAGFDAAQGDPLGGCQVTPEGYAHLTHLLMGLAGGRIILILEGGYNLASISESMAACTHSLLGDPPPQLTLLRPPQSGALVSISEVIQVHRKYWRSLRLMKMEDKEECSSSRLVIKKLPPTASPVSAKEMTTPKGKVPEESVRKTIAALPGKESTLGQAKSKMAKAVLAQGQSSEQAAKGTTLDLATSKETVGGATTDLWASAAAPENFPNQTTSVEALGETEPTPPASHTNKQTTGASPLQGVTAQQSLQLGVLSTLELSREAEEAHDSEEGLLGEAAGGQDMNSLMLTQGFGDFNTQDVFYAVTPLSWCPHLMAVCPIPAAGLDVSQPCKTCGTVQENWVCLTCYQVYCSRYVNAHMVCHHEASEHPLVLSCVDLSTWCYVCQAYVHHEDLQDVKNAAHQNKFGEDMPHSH

[11] = test system: MKN-74; experiment: Growth inhibition of human MKN74 cells after 48 hrs by sulforhodamine B-based colorimetric assay; format: functional; details: MKN-74, 48 h
[12] = Selectivity index, ratio of IC50 for human placenta topoisomerase 2alpha to IC50 for mouse HDAC6 expressed in HEK293T cells co-expressing mouse HDA2; format: cell-based

| GI50 [1] [µM] | GI50 [2] [µM] | GI50 [3] [µM] | GI50 [4] [µM] | inhibition [5] | GI50 [6] [µM] | GI50 ([7]; read-out: GI50) [µM] | GI50 ([7]; read-out: pGI50 (converted)) [µM] | GI50 [8] [µM] | GI50 [9] [µM] | IC50 [10] [µM] | GI50 [11] [µM] | SMILES | Ratio IC50 [12] |
| --- | --- | --- | --- | --- | --- | --- | --- | --- | --- | --- | --- | --- | --- |
| 2.95 | 2.51 | 3.63 | 5.01 | Active | 3.55 | 3.98 | 3.98 | 4.37 | 3.98 | 0.051 | 4.47 | Cc1cn([C@H]2C[C@H](C3(c4ccc(NC(=O)CCCCCCC(=O)NO)cc4)SCCCS3)[C@@H](CO[Si](C)(C)C(C)(C)C)O2)c(=O)[nH]c1=O | – |
| 4.47 | 3.09 | 7.08 | 8.51 | Active | 4.27 | 3.98 | 3.98 | 4.57 | 8.32 | 0.044 | 5.75 | Cc1cn([C@@H]2C[C@H](C3(c4ccc(NC(=O)CCCCCCC(=O)NO)cc4)SCCCS3)[C@@H](CO[Si](C)(C)C(C)(C)C)O2)c(=O)[nH]c1=O | 20 |
